# In US8247211B2, “Glycopeptide antibiotics” (American Cyanamid Company, priority 2001, dated 2012):
# Assays:
# Assay in all cases: In vitro antibacterial evaluation: minimum inhibitory concentration (MIC), broth dilution method
# Type in all cases: cell-based
# Enterococcus sp. = system: Enterococcus sp.
# Method in brief: (§1)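 Test strains, among them recent clinical isolates carrying methicillin, penicillin and/or vancomycin resistance, were inoculated at 5×10^5 CFU/mL. A broth dilution series spanning 64-0.06 μg/mL in Muller-Hinton II […] (NCCLS M7-A2) defined the MIC as the lowest growth-inhibiting concentration.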
# Escherichia coli = system: Escherichia coli
# Method in brief: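 Following NCCLS approved standard M7-A2, compounds are serially diluted from 64 to 0.06 μg/mL in Muller-Hinton II […] and inoculated at 5×10^5 CFU/mL; the MIC is the minimum concentration at which growth is inhibited.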
# Staphylococcus sp. = settings: broth dilution, 18 hours at 35° C.
# Method in brief: as §1
# Streptococcus sp. = system: Streptococcus sp.
# Method in brief: as §1
# [1] = broth dilution, inoculum 5×10^5 CFU/mL, 18 hours at 35° C.
structure (smiles),measurement,setting,value
"CSc1ccc(C2OCC3OC(OC4C(CO)OC(Oc5ccc(CC6NC(=O)C(C(C)c7ccccc7)NC(=O)CNC(=O)C(CO)NC(=O)C(C(O)C7CNC(=N)N7C7OC(CO)C(O)C(O)C7O)NC(=O)C(C(O)C7CNC(=N)N7)NC6=O)cc5)C(O)C4O)C(O)C(O)C3O2)cc1[N+](=O)[O-] (stereo not drawn) [Example 168, Cyclo[glycyl-β-methylphenylalanyl-O-[4-O-[4,6-O-[4-(methylthio)-3-nitrobenzylidene]hexopyranosyl]hexopyranosyl]tyrosyl-3-(2-iminoimidazolidin-4-yl)seryl-3-(3-hexopyranosyl-2-iminoimidazolidin-4-yl)serylseryl]]",MIC Enterococcus avium (GC 4558),Enterococcus sp.; [1],2 µg/mL
same,MIC Enterococcus faecalis (ATCC 29212),Enterococcus sp.; [1],2 µg/mL
same,MIC Enterococcus faecalis (GC 2242),Enterococcus sp.; [1],2 µg/mL
same,MIC Enterococcus faecalis (GC 2691),Enterococcus sp.; [1],2 µg/mL
same,MIC Enterococcus faecalis (GC 3059),Enterococcus sp.; [1],2 µg/mL
same,MIC Enterococcus faecalis (GC 4552),Enterococcus sp.; [1],2 µg/mL
same,MIC Enterococcus faecalis (GC 4553),Enterococcus sp.; [1],2 µg/mL
same,MIC Enterococcus faecalis (GC 4554),Enterococcus sp.; [1],2 µg/mL
same,MIC Enterococcus faecalis (GC 6189),Enterococcus sp.; [1],2 µg/mL
same,MIC Enterococcus faecium (GC 2243),Enterococcus sp.; [1],2 µg/mL
same,MIC Enterococcus faecium (GC 4556),Enterococcus sp.; [1],2 µg/mL
same,MIC Enterococcus faecium (GC 4557),Enterococcus sp.; [1],1 µg/mL
same,MIC Enterococcus faecalis (ATCC 29212),Enterococcus sp.; strain ATCC 29212,2 µg/mL
same,MIC Enterococcus faecalis (GC 2242),Enterococcus sp.; strain GC 2242,2 µg/mL
same,MIC Enterococcus faecium (GC 2243),Enterococcus sp.; strain GC 2243,2 µg/mL
same,MIC Enterococcus faecalis (GC 2691),Enterococcus sp.; strain GC 2691,2 µg/mL
same,MIC Enterococcus faecalis (GC 3059),Enterococcus sp.; strain GC 3059,2 µg/mL
same,MIC Enterococcus faecalis (GC 4552),Enterococcus sp.; strain GC 4552,2 µg/mL
same,MIC Enterococcus faecalis (GC 4553),Enterococcus sp.; strain GC 4553,2 µg/mL
same,MIC Enterococcus faecalis (GC 4554),Enterococcus sp.; strain GC 4554,2 µg/mL
same,MIC Enterococcus faecium (GC 4556),Enterococcus sp.; strain GC 4556,2 µg/mL
same,MIC Enterococcus faecium (GC 4557),Enterococcus sp.; strain GC 4557,1 µg/mL
same,MIC Enterococcus avium (GC 4558),Enterococcus sp.; strain GC 4558,2 µg/mL
same,MIC Enterococcus faecalis (GC 6189),Enterococcus sp.; strain GC 6189,2 µg/mL
same,MIC Escherichia coli (ATCC 25922),Escherichia coli; strain ATCC 25922,64 µg/mL
same,MIC Escherichia coli (GC 4559),Escherichia coli; strain GC 4559,16 µg/mL
same,MIC Escherichi coli (GC 4560),Escherichia coli; strain GC 4560,0.5 µg/mL
same,MIC Coagulase Negative Staphylococcus (GC 4547),Staphylococcus sp.; 5×10^5 CFU/mL,2 µg/mL
same,MIC Coagulase Negative Staphylococcus (GC 4548),Staphylococcus sp.; 5×10^5 CFU/mL,0.5 µg/mL
same,MIC Coagulase Negative Staphylococcus (GC 4549),Staphylococcus sp.; 5×10^5 CFU/mL,0.5 µg/mL
same,MIC Coagulase Negative Staphylococcus (GC 4551),Staphylococcus sp.; 5×10^5 CFU/mL,1 µg/mL
same,MIC Staphylococcus aureus (ATCC 29213),Staphylococcus sp.; 5×10^5 CFU/mL,1 µg/mL
same,MIC Staphylococcus aureus (GC 1131),Staphylococcus sp.; 5×10^5 CFU/mL,1 µg/mL
same,MIC Staphylococcus aureus (GC 3051),Staphylococcus sp.; 5×10^5 CFU/mL,1 µg/mL
same,MIC Staphylococcus aureus (GC 3053),Staphylococcus sp.; 5×10^5 CFU/mL,1 µg/mL
same,MIC Staphylococcus aureus (GC 4541),Staphylococcus sp.; 5×10^5 CFU/mL,1 µg/mL
same,MIC Staphylococcus aureus (GC 4542),Staphylococcus sp.; 5×10^5 CFU/mL,1 µg/mL
same,MIC Staphylococcus aureus (GC 4544),Staphylococcus sp.; 5×10^5 CFU/mL,2 µg/mL
same,MIC Staphylococcus aureus (GC 4545),Staphylococcus sp.; 5×10^5 CFU/mL,1 µg/mL
same,MIC Staphylococcus aureus-SMITH (GC 4543),Staphylococcus sp.; 5×10^5 CFU/mL,1 µg/mL
same,MIC Staphylococcus haemolyticus (GC 4546),Staphylococcus sp.; 5×10^5 CFU/mL,0.5 µg/mL
same,MIC Staphylococcus aureus (ATCC 29213),Staphylococcus sp.; strain ATCC 29213,1 µg/mL
same,MIC Staphylococcus aureus (GC 1131),Staphylococcus sp.; strain GC 1131,1 µg/mL
same,MIC Staphylococcus aureus (GC 3051),Staphylococcus sp.; strain GC 3051,1 µg/mL
same,MIC Staphylococcus aureus (GC 3053),Staphylococcus sp.; strain GC 3053,1 µg/mL
same,MIC Staphylococcus aureus (GC 4541),Staphylococcus sp.; strain GC 4541,1 µg/mL
same,MIC Staphylococcus aureus (GC 4542),Staphylococcus sp.; strain GC 4542,1 µg/mL
same,MIC Staphylococcus aureus (GC 4544),Staphylococcus sp.; strain GC 4544,2 µg/mL
same,MIC Staphylococcus aureus (GC 4545),Staphylococcus sp.; strain GC 4545,1 µg/mL
same,MIC Streptococcus agalactiae (GC 4564),Streptococcus sp.; [1],<0.12 µg/mL
same,MIC Streptococcus pneumoniae (ATCC 6301),Streptococcus sp.; [1],<0.12 µg/mL
same,MIC Streptococcus pneumoniae (GC 1894),Streptococcus sp.; [1],<0.12 µg/mL
same,MIC Streptococcus pneumoniae (GC 4565),Streptococcus sp.; [1],<0.12 µg/mL
same,MIC Streptococcus pyogenes (GC 4563),Streptococcus sp.; [1],0.5 µg/mL
same,MIC Streptococcus pneumoniae (ATCC 6301),Streptococcus sp.; strain ATCC 6301,<0.12 µg/mL
same,MIC Streptococcus pneumoniae (GC 1894),Streptococcus sp.; strain GC 1894,<0.12 µg/mL
same,MIC Streptococcus pyogenes (GC 4563),Streptococcus sp.; strain GC 4563,0.5 µg/mL
same,MIC Streptococcus agalactiae (GC 4564),Streptococcus sp.; strain GC 4564,<0.12 µg/mL
same,MIC Streptococcus pneumoniae (GC 4565),Streptococcus sp.; strain GC 4565,<0.12 µg/mL
